Columns and labels:
[1] = Setting time and exotherm (setting temperature) of cyanoacrylate film polymerized via initiator-impregnated porous applicator tip; format: physicochemical; conditions: Quadrol as initiator in porous tip with 2-OCA formulations A and B
[2] = potentiometric titration at 25° C. in 0.15 M sodium chloride solution; cited from earlier work

CC(O)CN(CCN(CC(C)O)CC(C)O)CC(C)O (stereo not drawn) [Quadrol, N,N,N′,N′-tetrakis(2-hydroxypropyl)ethylenediamine]
cure time [1]: clinically acceptable timeframe | pKa1 (tertiary amine group) [2]: 8.99±0.04 | pKa2 (quaternary ammonium form) [2]: 4.30±0.04

— US20100249698A1, “CONTROLLED EXOTHERM OF CYANOACRYLATE FORMULATIONS” (priority 2009, published 2010)
